# Data taken from paper PMC11992225, “Antibacterial compounds against non-growing and intracellular bacteria” (npj Antimicrobials and Resistance, 2025).
# System: non-growing S. aureus DSM2569
# Assay: Dilution-regrowth assay (OD600, start-growth-time) on stationary-phase S. aureus
# Format: cell-based, Staphylococcus aureus
# Conditions: Staphylococcus aureus, DSM2569; S. aureus; regrowth delay of non-growing bacteria, 1:4 CA-MHB pH 7.4, 24 h treatment, OD600 8 h after dilution; read-out: EC50
# Method: The cultures were grown and treated for 24 h in 1:4 CA-MHB (pH 7.4).
# This approach allowed us to capture the time when cultures reached a threshold optical density (start-growth-time, SGT[15]).
# The cultures were incubated for 24 h in non-baffled Erlenmeyer flasks at 37 °C with shaking at 200 rpm.
# For P. aeruginosa and S. aureus, dose–response analysis was conducted in 96-well plates with a 200 μl assay volume, following the procedure used for screening assay validation experiments. […] Stock solutions were prepared and stored according to the manufacturers’ instructions, then diluted in 10% DMSO before use. Cultures were incubated for 24 h in 1:4 diluted CA-MHB medium under the same conditions used for UPEC cultivation. In preliminary experiments, each compound was tested at a concentration of 20 μM in the dilution-regrowth assay with 4 technical replicates. Regrowth was monitored using a microplate reader at 37 °C with continuous shaking, and OD600 was recorded every 20 min. The time at which OD600 exceeded the threshold of 0.12 was recorded as the Start_Growth-Time.
# Statistical significance of the drug effects was assessed using a one-way ANOVA followed by Dunnett’s test, comparing each treatment to the drug-free control. Statistical significance of the differences in chemical characteristics between the hit compounds and the Prestwick library was assessed using a Mann–Whitney test. Statistical significance was set at P ≤ 0.05. A five-parameter logistic equation was used for asymmetric sigmoidal curve fitting and for EC50 and IC50 determination. The Venn diagram in Fig. 1F was prepared using BioVenn web application. Characteristics of the chemical and physical properties of Prestwick library compounds were obtained from Supplementary Table S1 from reference. Characteristics of the hit compounds not included in the Prestwick library were retrieved from the PubChem database.
smiles,measurement,value
CO[C@H]1/C=C/O[C@@]2(C)Oc3c(C)c(O)c4c(O)c(c(/C=N/N5CCN(C)CC5)c(O)c4c3C2=O)NC(=O)/C(C)=C\C=C\[C@H](C)[C@H](O)[C@@H](C)[C@@H](O)[C@@H](C)[C@H](OC(C)=O)[C@@H]1C [Rifampicin],EC50,0.043 µM
